Like-named read-outs stand apart in the source and are kept apart here.
How the values were obtained:
[1] = test system: MIA (pancreatic) cancer cells; test: MTT growth inhibition assay, MIA; format: cell-based; settings: 72 h, ± standard error, read-out: Growth Inhibition Concentration, GI50
Description: (§1) The Schiff bases and their organotin(IV) compounds were screened for in vitro cytotoxicity against a panel of 12 cancer cell lines: EJ-28 (muscle invasive bladder), RT-112 (minimum-invasive bladder), HT29 (colon), U87 and SJ-G2 (glioblastoma), MCF-7 (breast), A2780 (ovarian), H460 (lung), A431 (skin), DU145 (prostate), BE2-C (neuroblastoma), MIA (pancreatic) and one normal breast cell line (MCF-10A) using the MTT metabolic assay (Figure 6). After 72 h of incubation, a dose-dependent […] effect towards the cancer cell lines was measured at very low micromolar (µM) concentrations of the compounds. The growth inhibition concentration of the Schiff bases and their organotin(IV) compounds required to inhibit 50% cell proliferation relative to the cells that were treated with DMSO (control) are given in Table 2. The stability of these compounds was assessed in DMSO as well as in a mixture of DMSO-H2O. The absorbance obtained from UV-vis spectroscopy analysis was monitored for 72 h, and an unchanged pattern in the spectra was indicative that the compounds were stable in both the solvent systems tested.
(§2) For HT29 (colon), U87 and SJ-G2 (glioblastoma), MCF-7 (breast), A2780 (ovarian), H460 (lung), A431 (skin), Du145 (prostate), BE2-C (neuroblastoma), MIA (pancreas) cell lines and one normal breast cell line, MCF-10A (normal breast), the MTT assays were performed using the following method:
(§3) Stock solutions were prepared as follows and stored at −20 °C: Trial compounds were stored as 10 mM solutions in DMSO. All cell lines were cultured in a humidified atmosphere 5% CO2 at 37 °C. The cancer cell lines were maintained in Dulbecco’s modified Eagle’s medium (DMEM) (Trace Biosciences) supplemented with 10% foetal bovine serum, 10 mM sodium bicarbonate, penicillin (100 IU/mL), streptomycin (100 μg/mL) and glutamine (4 mM). The normal cell line, MCF-10A was cultured in DMEM:F12 (1:1) cell culture media, 5% heat inactivated horse serum, supplemented with penicillin (50 IU/mL), streptomycin (50 μg/mL), 20mM Hepes, L-glutamine (2 mM), epidermal growth factor (20 ng/mL), hydrocortisone (500 ng/mL), cholera toxin (100 ng/mL) and insulin (10 μg/mL).
(§4) Cells in logarithmic growth were transferred to 96-well plates. Cytotoxicity was determined by plating cells in duplicate in 100 μL medium at a density of 2500–4000 cells/well. On day 0 (24 h after plating), when the cells were in logarithmic growth, 100 μL medium, with or without the test agent, was added to each well. After 72 h drug exposure, growth inhibitory effects were evaluated using the MTT (3-[4,5-dimethylthiazol-2-yl]-2,5-diphenyltetrazolium bromide) assay and absorbance read at 540 nm. Percentage growth inhibition was determined at a fixed drug concentration of 25 μM. A value of 100% was indicative of complete cell growth inhibition. Those analogues showing appreciable percentage growth inhibition underwent further dose-response analysis allowing for the calculation of a GI50 value. This value is the drug concentration at which cell growth is 50% inhibited based on the difference between the optical density values on day 0 and those at the end of drug exposure.

[2] = test system: RT-112 (minimum-invasive bladder) cancer cells; test: MTT cytotoxicity assay, RT-112; format: cell-based, human; settings: RT-112 cells, 72 h, ± standard error, read-out: Growth Inhibition Concentration, GI50
Description: as §1
(§5) The inhibitory effect of the synthesised compounds on the growth of bladder (EJ-28 and RT-112) cancer cells was evaluated by MTT assay. […] RT-112 and EJ-28, human bladder cancer cell lines used in this study (ATCC, Manassas, VA, USA) were cultured in RPMI-1640 (High glucose) medium supplemented with 10% fetal bovine serum containing 1% penicillin. The cells were cultured at 37 °C in a humidified atmosphere of 5% CO2 in air. Cells were seeded in 96-well plates at 6000 cells per well for 24 h, then they were treated with different concentrations of compounds for 72 h. The medium was subsequently removed and the wells were washed with 200 µL of phosphate buffer saline. Aliquots of 20 µL of 3-(4,5-dimethylthiazol-2-yl)-2,5-diphenyltetrazolium bromide (MTT) was added to each well and incubated for 4 h at 37 °C. Aliquots of 200 µL of media was then removed from each well and 200 µL of DMSO was added. Optical density (OD) was measured using an ELISA plate reader at 570 nm. Control wells (100% viability), containing media and DMSO, were included in all the experiments. All data points represented an average of triplicate assays. Cytotoxicity was expressed as CD50, i.e., the concentration that reduced the absorbance of treated cells by 50% with reference to the control (untreated cells).

A431 (skin) cancer cells = test: MTT growth inhibition assay, A431; format: cell-based; settings: ± standard error, read-out: Growth Inhibition Concentration, GI50
Description: as §1, §2, §3, §4

H460 (lung) cancer cells = test: MTT growth inhibition assay, H460; format: cell-based; settings: ± standard error, read-out: Growth Inhibition Concentration, GI50
Description: as §1, §2, §3, §4

[3] = test system: HT29 (colon) cancer cells; test: MTT growth inhibition assay, HT29; format: cell-based; settings: ± standard error, read-out: Growth Inhibition Concentration, GI50
Description: as §1, §2, §3, §4

[4] = test system: U87 (glioblastoma) cancer cells; test: MTT growth inhibition assay, U87; format: cell-based; settings: 72 h, ± standard error, read-out: Growth Inhibition Concentration, GI50
Description: as §1, §2, §3, §4

calf thymus DNA (CT-DNA) = test: CT-DNA binding by UV-vis absorption titration; settings: for Bathochromism Shift (nm) / Hypochromism, (%): CT-DNA, UV-vis absorption titration; for Gibbs Free Energy: interaction with CT-DNA
Description: Both theoretical and experimental DNA binding of the synthesised organotin(IV) compounds with DNA were investigated. The interaction of organotin(IV) compounds with CT-DNA was elucidated via UV-visible absorption spectroscopy. […] The absorption spectra of diphenyltin(IV) compounds at a constant concentration (50 μM) in the absence and the presence of different concentrations of CT-DNA are shown in Figure 8. Upon increasing concentrations of CT-DNA, hypochromism and bathochromism occurred at around 350–377 nm indicating strong π–π stacking interactions between the aromatic chromophore of the organotin(IV) compounds and the nitrogeneous pair of the DNA strand [11, 70]. The same hypochromism and bathochromism shifts were also observed in other transitions. In order to compare the binding strength of the organotin(IV) compounds to CT-DNA, the intrinsic binding constants (Kb) were quantitatively determined and are presented in Table 3.
DNA binding experiments were carried out at 25°C. DNA concentration per nucleotide was determined using the molar absorption coefficient (6600 M^−1 cm^−1) at 260 nm. […] Absorption titration experiments were performed maintaining the concentration of the organotin(IV) compounds solutions at 50 µM and gradually increasing the concentration of CT-DNA. The organotin(IV) compounds were dissolved in DMSO and diluted with Tris-HCI buffer at room temperature (25 °C). The solutions were scanned over 230–600 nm. Absorbance values were recorded 10 min after the addition of DNA solution. The binding constant, Kb was determined using the equation: [DNA]/(εa−εf)=[DNA]/(εb−εf)+1/Kb(εb−εf) where [DNA] is the concentration of DNA in base pairs, εa corresponds to the apparent molar extinction coefficient Aabs/[M], εf corresponds to the extinction coefficient for the free organotin [M] and εb corresponds to the extinction coefficient for the fully bound organotin compound.

[5] = test system: Du145 (prostate) cancer cells; test: MTT growth inhibition assay, Du145; format: cell-based; settings: ± standard error, read-out: Growth Inhibition Concentration, GI50
Description: as §1, §2, §3, §4

[6] = test system: BE2-C (neuroblastoma) cancer cells; test: MTT growth inhibition assay, BE2-C; format: cell-based; settings: 72 h, ± standard error, read-out: Growth Inhibition Concentration, GI50
Description: as §1, §2, §3, §4

[7] = test system: MCF-10A (normal breast) cell line; test: MTT growth inhibition assay, MCF10A; format: cell-based; settings: MCF10A normal breast cells, 72 h, ± standard error, read-out: Growth Inhibition Concentration, GI50
Description: as §1, §2, §3, §4

[8] = test system: MCF-7 (breast) cancer cells; test: MTT growth inhibition assay, MCF-7; format: cell-based; settings: 72 h, ± standard error, read-out: Growth Inhibition Concentration, GI50
Description: as §1, §2, §3, §4

[9] = test system: EJ-28 (muscle invasive bladder) cancer cells; test: MTT cytotoxicity assay, EJ-28; format: cell-based, human; settings: EJ-28 cells, 72 h, ± standard error, read-out: Growth Inhibition Concentration, GI50
Description: as §1, §5

[10] = test system: A2780 (ovarian) cancer cells; test: MTT growth inhibition assay, A2780; format: cell-based; settings: 72 h, ± standard error, read-out: Growth Inhibition Concentration, GI50
Description: as §1, §2, §3, §4

[11] = test system: SJ-G2 (glioblastoma) cancer cells; test: MTT growth inhibition assay, SJ-G2; format: cell-based; settings: MTT, 72 h, ± standard error, read-out: Growth Inhibition Concentration, GI50
Description: as §1, §2, §3, §4

| Compound | GI50 [1] | GI50 [2] | GI50 (A431 (skin) cancer cells; 72 h) | GI50 (H460 (lung) cancer cells; 72 h) | GI50 ([3]; 72 h) | GI50 [4] | Bathochromism Shift (nm) (calf thymus DNA (CT-DNA)) | Hypochromism, (%) (calf thymus DNA (CT-DNA)) | Gibbs Free Energy (calf thymus DNA (CT-DNA)) | GI50 ([5]; 72 h) | GI50 [6] | GI50 [7] | GI50 ([8]; MCF-7 cells) | GI50 [9] | GI50 [10] | GI50 [11] | other results |
| --- | --- | --- | --- | --- | --- | --- | --- | --- | --- | --- | --- | --- | --- | --- | --- | --- | --- |
| COc1cccc2c1[O][Sn]([CH3])([CH3])[S]C(SCc1ccc(C)cc1)=NN=C2 [Me2Sn(S4MoVa), Dimethyltin(IV) [S-4-Methybenzyl-β-N-(2-hydroxy-3-methoxybenzylmethylene) dithiocarbazate]] | 8.9 ± 1.3 µM | > 5 µM | 4.2 ± 0.34 µM | 4.7 ± 0.46 µM | 6.9 ± 3.5 µM | 3.3 ± 0.18 µM | 7 nm | 43.72% | -7.67 kcal/mol | 4.2 ± 0.1 µM | 3.3 ± 0.23 µM | 3.3 ± 0.15 µM | 3.3 ± 0.32 µM | > 5 µM | 3.1 ± 0.63 µM | 3.1 ± 0.55 µM |  |
| COc1cccc2c1[O][Sn]([CH3])([CH3])[S]C(SCc1ccccc1)=NN=C2 [Me2Sn(SBoVa), Dimethyltin(IV) [S-Benzyl-β-N-(2-hydroxy-3-methoxybenzylmethylene) dithiocarbazate]] | 5 ± 0.09 µM | 2.4 ± 0.33 µM | 3.2 ± 0.03 µM | 3.8 ± 0.1 µM | 2.8 ± 0.15 µM | 4.5 ± 0.19 µM | 1 nm | 53.26% | -8.99 kcal/mol | 3.2 ± 0.13 µM | 2.7 ± 0.13 µM | 2.8 ± 0.41 µM | 2.5 ± 0.21 µM | 3.4 ± 0.3 µM | 3.2 ± 0.03 µM | 2.1 ± 0.12 µM |  |
| COc1cccc(/C=N/NC(=S)SCc2ccccc2)c1O [SBoVaH, S-Benzyl-β-N-(2-hydroxy-3-methoxybenzylmethylene) Dithiocarbazate] |  |  |  |  |  |  |  |  |  |  |  |  |  |  |  | 2.4 ± 0.26 µM | GI50 ([1]; Pancreatic cancer cell): 4.5 ± 0.25 µM; GI50 ([2]; Homo sapiens): 3.7 ± 0.57 µM; GI50 (A431 (skin) cancer cells; Homo sapiens, A-431, 72 h): 3 ± 0.15 µM; GI50 (H460 (lung) cancer cells; Homo sapiens, NCI-H460, 72 h): 3.3 ± 0.21 µM; GI50 ([3]; Homo sapiens, HT-29, 72 h): 2.2 ± 0.033 µM; GI50 ([4]; Homo sapiens, U-87 MG): 3.1 ± 0.26 µM; melting point: 173 to 174 °C; GI50 ([5]; Homo sapiens, DU-145, 72 h): 3.4 ± 0.3 µM; GI50 ([6]; Homo sapiens, BE(2)-C): 2.8 ± 0.2 µM; GI50 ([7]; Homo sapiens, MCF-10A): 3 ± 0.07 µM; GI50 ([8]; Homo sapiens, MCF7, MCF-7 cells): 2.5 ± 0.12 µM; GI50 ([9]; Homo sapiens): 3.1 ± 0.2 µM; GI50 ([10]; Homo sapiens): 3 ± 0.06 µM |

— paper PMC6413231, “o-Vanillin Derived Schiff Bases and Their Organotin(IV) Compounds: Synthesis, Structural Characterisation, In-Silico Studies and Cytotoxicity” (International Journal of Molecular Sciences, 2019)
